Results on 12 compounds are retold here after ChEMBL document CHEMBL1201862, “PubChem BioAssay data set” (2004).

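1) Cells in 96-well plates. 2) Compound, 48 h, 5 concentrations. 3) Linear interpolation between surrounding doses. 4) Unreached endpoint = highest concentration. At the GI50, growth is halved.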 Calls of active or inactive are those of the source. Cut-off read from the data, not from the text of the source: active = GI50 up to about 1.1 µM and inactive = higher. *1 amine or outer side, *2 acyl side, *3 side chain or, on linkers, in order; H or OH if unused. Where a SMILES comes first, the peptide text is derived from it. Bridges are numbered along the chain shown (N, C = ends). [ ]: non-standard residue; d: D form. The star is where a group is joined. X36 = O=C(C(CCCCNO[*:3])N[*:1])[*:2]; Fmoc = O=C(OCC1c2ccccc2-c2ccccc21)*

Some test systems named below: BT-549; CCRF-CEM; EKVX; HCT-15; HL-60; HT-29; M14; MDA-MB-435; MOLT-4; Malme-3M; NCI-H522; OVCAR-3; OVCAR-4; SF-268; SF-539; SNB-75; U-251; MDA-N; SN12C.
Common to all, as to test: NCI anticancer screen, dose series, 48 h

Take `CC(=O)Oc1c(-c2ccccc2)sc2ccccc12`: the GI50 in the assay with BT-549 was 21.4 µM (inactive); in the assay with CCRF-CEM it was 18 µM (inactive); in the assay on EKVX it was 22.3 µM (inactive); in the assay on HCT-15, 16.6 µM; in the assay with HL-60, 18 µM (inactive); with HT-29 it was 20.3 µM (inactive). Besides, the GI50 with M14 is > 10 µM (inactive); in the assay on MDA-MB-435 it was 25 µM (inactive); in the assay on MOLT-4 it was 14.7 µM (inactive); in the assay with Malme-3M, 18.2 µM (inactive); in the assay with NCI-H522, 19 µM (inactive); in the assay with OVCAR-3, > 10 µM (inactive). Also, the GI50 in the assay with OVCAR-4 was 23 µM (inactive); with SF-268, 23 µM (inactive); with SF-539, 20.6 µM (inactive); in the assay on SNB-75, 15.8 µM (inactive); in the assay on U-251, 18 µM (inactive).

For the compound `CCCCc1ccc(N2C(=O)c3cc([N+](=O)[O-])cnc3S2(=O)=O)cc1`, the GI50 in the assay with BT-549 was 87.7 µM (inactive); with CCRF-CEM it was > 10 µM (inactive); in the assay on EKVX, > 100 µM (inactive); in the assay with HCT-15, > 100 µM; in the assay with HT-29 it was > 100 µM (inactive); in the assay on M14 it was > 100 µM (inactive). The GI50 with MDA-MB-435, in the assay on MDA-N, with MOLT-4, with Malme-3M, with OVCAR-3 and in the assay with OVCAR-4 was > 100 µM (inactive) in each case. The GI50 with SF-268 is 24.2 µM (inactive); in the assay on SF-539, > 100 µM (inactive); in the assay with SN12C, > 100 µM (inactive); in the assay with SNB-75, > 100 µM (inactive); in the assay with U-251, 31.8 µM (inactive).

For `CSC1=N/C(=C\c2ccccc2)C(=O)N1CN1CCOCC1`, the GI50 in the assay with CCRF-CEM was 36 µM (inactive); with EKVX it was 50.6 µM (inactive); with HCT-15, 33.3 µM; with HL-60 it was 54.6 µM (inactive); in the assay with HT-29 it was 30.8 µM (inactive); in the assay on M14, 91.8 µM (inactive). In addition, the GI50 in the assay on MDA-MB-435 is 93.8 µM (inactive); in the assay with MDA-N, > 100 µM (inactive); with MOLT-4, 64.6 µM (inactive); in the assay with Malme-3M, 57.3 µM (inactive); in the assay on NCI-H522, 51.8 µM (inactive); with OVCAR-3 it was > 100 µM (inactive). Further, the GI50 in the assay with OVCAR-4 is 28.2 µM (inactive); in the assay on SF-268 it was 61.5 µM (inactive); in the assay with SN12C, > 100 µM (inactive); in the assay with SNB-75, 69.2 µM (inactive); in the assay on U-251, 64.4 µM (inactive).

As to `Cc1oc2nc(N(C)C)n3nnnc3c2c1C`, the GI50 was 74.1 µM (inactive) in the assay with BT-549; > 100 µM (inactive) in the assay with CCRF-CEM; > 100 µM (inactive) in the assay with EKVX; > 100 µM in the assay on HCT-15; 18.6 µM (inactive) with HL-60; > 100 µM (inactive) in the assay with HT-29. Moreover, the GI50 in the assay with M14 is > 100 µM (inactive); in the assay on MDA-MB-435 it was > 100 µM (inactive); with MOLT-4, > 100 µM (inactive); in the assay on NCI-H522, > 100 µM (inactive); in the assay with OVCAR-4, 48 µM (inactive); in the assay with SF-268 it was > 100 µM (inactive). Also, the GI50 is > 100 µM (inactive) in the assay with SF-539, > 100 µM (inactive) in the assay with SN12C, 67.5 µM (inactive) with SNB-75 and > 100 µM (inactive) in the assay with U-251.

As for `COC(=O)C1Cc2c([nH]c3ccccc23)-c2[nH]c3ccccc3c2CC(NC(C)=O)C(=O)NCC(=O)N1` (centres undefined), the GI50 is > 100 µM (inactive) with CCRF-CEM; > 100 µM (inactive) with EKVX; > 100 µM in the assay with HCT-15; > 100 µM (inactive) with HT-29; > 100 µM (inactive) with MDA-MB-435; > 100 µM (inactive) with MDA-N. Further, the GI50 with MOLT-4, in the assay on NCI-H522, with OVCAR-3, in the assay with OVCAR-4, with SF-268 and in the assay on SF-539 was > 100 µM (inactive) in each case. Also, the GI50 with SN12C, in the assay with SNB-75 and in the assay with U-251 was > 100 µM (inactive) each time.

For the compound `O=S(=O)(c1cc(Cl)ccc1Cl)N1CCN(c2cccc(Cl)c2)CC1`, the GI50 was > 100 µM (inactive) with BT-549; > 100 µM (inactive) in the assay on CCRF-CEM; > 100 µM (inactive) in the assay on EKVX; > 100 µM in the assay with HCT-15; > 100 µM (inactive) in the assay on HL-60; 58.7 µM (inactive) with HT-29. For the same compound, the GI50 is > 10 µM (inactive) with M14; 59.2 µM (inactive) in the assay on MDA-N; > 100 µM (inactive) with MOLT-4; > 100 µM (inactive) in the assay on Malme-3M; > 100 µM (inactive) in the assay with NCI-H522; > 100 µM (inactive) in the assay on OVCAR-3. Also, the GI50 with OVCAR-4, with SF-268, in the assay with SF-539, in the assay with SN12C, with SNB-75 and in the assay on U-251 was > 100 µM (inactive) in each case.

On to `O=[N+]([O-])c1ccc(-c2nc(/C=N/N3CCCCC3)cs2)o1`, for which the GI50 in the assay on BT-549 was 92.5 µM (inactive); in the assay with EKVX, > 100 µM (inactive); in the assay with HCT-15, 32.6 µM; in the assay on HL-60, 20.1 µM (inactive); in the assay with HT-29, 25.9 µM (inactive); with M14, 37.4 µM (inactive). The GI50 is 27.7 µM (inactive) in the assay with MDA-MB-435; 26.5 µM (inactive) in the assay with MOLT-4; 22.8 µM (inactive) in the assay with Malme-3M; 45.2 µM (inactive) with NCI-H522; 26.3 µM (inactive) with OVCAR-3; 23.6 µM (inactive) in the assay with OVCAR-4. Also, the GI50 was > 100 µM (inactive) in the assay with SF-268; > 100 µM (inactive) with SF-539; 16.2 µM (inactive) in the assay on SN12C; > 100 µM (inactive) with SNB-75; > 100 µM (inactive) with U-251.

Regarding `COC(=O)[C@]12CSC[C@H]1C[C@H](c1cccc3ccccc13)N2`, the GI50 in the assay with BT-549 is > 100 µM (inactive); with CCRF-CEM, 30.2 µM (inactive); with EKVX, > 100 µM (inactive); with HCT-15, > 100 µM; in the assay with M14 it was > 100 µM (inactive); in the assay on MDA-MB-435, > 100 µM (inactive). Besides, the GI50 with MDA-N was > 100 µM (inactive); in the assay on MOLT-4 it was 18.2 µM (inactive); in the assay on OVCAR-3, > 100 µM (inactive); in the assay on SF-539 it was > 100 µM (inactive); with SN12C it was > 100 µM (inactive); in the assay with SNB-75 it was > 100 µM (inactive). Besides, the GI50 with U-251 is 69.8 µM (inactive).

With `N#C/C(=C\c1ccc[nH]1)C(=O)c1ccccc1`, the GI50 was > 100 µM (inactive) in the assay with CCRF-CEM; > 100 µM (inactive) with EKVX; > 100 µM with HCT-15; > 100 µM (inactive) in the assay on HL-60; > 100 µM (inactive) in the assay on HT-29; > 100 µM (inactive) in the assay with M14. In addition, the GI50 in the assay with MOLT-4, with Malme-3M, in the assay on NCI-H522, with OVCAR-3, with OVCAR-4 and in the assay with SF-268 was > 100 µM (inactive) in each case. Also, the GI50 with SF-539 was > 100 µM (inactive); in the assay with SN12C, > 100 µM (inactive); with SNB-75, 35.8 µM (inactive); in the assay with U-251, > 100 µM (inactive).

Regarding `O=C1NC(=S)NC1C(Cc1ccccc1)c1ccco1` (centres undefined), the GI50 in the assay on CCRF-CEM was 68.2 µM (inactive); in the assay with EKVX it was > 100 µM (inactive); in the assay with HCT-15, > 100 µM; in the assay with HL-60, 39.6 µM (inactive); in the assay with HT-29 it was > 100 µM (inactive); in the assay on M14, > 100 µM (inactive). The GI50 in the assay with MDA-MB-435 is > 100 µM (inactive); in the assay with MDA-N, > 100 µM (inactive); in the assay with MOLT-4 it was 81.7 µM (inactive); in the assay with Malme-3M it was > 100 µM (inactive); in the assay on NCI-H522 it was > 100 µM (inactive); in the assay on OVCAR-4 it was > 100 µM (inactive). In addition, the GI50 in the assay on SF-268, with SF-539, in the assay with SN12C, in the assay with SNB-75 and in the assay on U-251 was > 100 µM (inactive) each time.

`NC(=O)CNC(=O)C1CCCN1C(=O)C1CCCCNOC(=O)CCC(NC(=O)OCC2c3ccccc3-c3ccccc32)C(=O)NC(Cc2c[nH]c3ccccc23)C(=O)N1` (centres undefined) (Fmoc-EW[X36]PG-NH2; ester 1-3; configuration not given here): the GI50 with BT-549 is > 100 µM (inactive); with CCRF-CEM, > 100 µM (inactive); with EKVX it was > 100 µM (inactive); in the assay on HCT-15, > 100 µM; in the assay with HL-60 it was > 100 µM (inactive); with HT-29, > 100 µM (inactive). Besides, the GI50 is 54.3 µM (inactive) in the assay with M14; > 100 µM (inactive) with MDA-MB-435; > 100 µM (inactive) with MOLT-4; > 100 µM (inactive) in the assay with Malme-3M; > 100 µM (inactive) in the assay on NCI-H522; > 100 µM (inactive) in the assay with OVCAR-3. In addition, the GI50 in the assay on OVCAR-4, in the assay with SF-268, in the assay on SF-539, in the assay on SN12C, in the assay on SNB-75 and in the assay with U-251 was > 100 µM (inactive) throughout.

Take `CC(=O)NC1C(OC2C(CO)OC(OCC3OC(n4ccc(N)nc4=O)C(O)C3O)C(NC(C)=O)C2O)OC(CO)C(O)C1O` (centres undefined): the GI50 in the assay on BT-549 was > 100 µM (inactive); in the assay with CCRF-CEM, 12.1 µM (inactive); in the assay with EKVX, > 100 µM (inactive); with HCT-15 it was > 100 µM; with HL-60, > 34.6 µM (inactive); in the assay on HT-29, > 100 µM (inactive). Further, the GI50 with M14 was > 100 µM (inactive); in the assay on MDA-MB-435, > 100 µM (inactive); with MOLT-4, > 29.4 µM (inactive); in the assay on Malme-3M it was 5.97 µM (inactive); with NCI-H522, 9.2 µM (inactive); in the assay with OVCAR-3, > 100 µM (inactive). The GI50 with OVCAR-4, with SF-268, in the assay on SF-539, in the assay on SN12C, in the assay on SNB-75 and in the assay with U-251 was > 100 µM (inactive) in each case.
